According to patent US20190077809A1, “Spirocyclic Derivatives” (BASF SE, priority 2016, published 2019):

Columns and labels:
Type in all cases: in vivo
[1] = test system: Tetranychus kanzawai; test: Red spider mite (Tetranychus kanzawai) sprayed cowpea bean test; conditions: mites on sprayed cowpea beans, 72 hours after treatment, read-out: mortality in comparison with untreated controls
Experimental: The active compound was dissolved at the desired concentration in a mixture of 1:1 (vol:vol) distilled water:acetone. Add surfactant (Kinetic HV) was added at a rate of 0.01% (vol/vol).The test solution was prepared at the day of use.
Potted cowpea beans of 4-5 days of age were cleaned with tap water and sprayed with 1-2 ml of the test solution using air driven hand atomizer. The treated plants were allowed to air dry and afterwards inoculated with 30 or more mites by clipping a cassava leaf section from rearing population. Treated plants were placed inside a holding room at about 25-27° C. and about 50-60% relative humidity. Percent mortality was assessed 72 hours after treatment.

[2] = test system: Megoura viciae; test: Vetch aphid (Megoura viciae) broad bean leaf disk test; conditions: foliar, 120 h, adult aphids on sprayed broad bean leaf disks, 5 days, read-out: mortality in comparison with untreated controls
Experimental: For evaluating control of vetch aphid (Megoura viciae) through contact or systemic means the test unit consisted of 24-well-microtiter plates containing broad bean leaf disks.
The compounds were formulated using a solution containing 75% v/v water and 25% v/v DMSO. Different concentrations of formulated compounds were sprayed onto the leaf disks at 2.5 μl, using a custom built micro atomizer, at two replications.
After application, the leaf disks were air-dried and 5- 8 adult aphids placed on the leaf disks inside the microtiter plate wells. The aphids were then allowed to suck on the treated leaf disks and incubated at about 23±1° C. and about 50±5% relative humidity for 5 days. Aphid mortality and fecundity was then visually assessed.

[3] = test system: Ceratitis capitata; test: Mediterranean fruitfly (Ceratitis capitata) insect diet/egg microtiter test; conditions: 120 h, egg and larval mortality on sprayed insect diet, 5 days, read-out: mortality in comparison with untreated controls
Experimental: For evaluating control of Mediterranean fruitfly (Ceratitis capitata) the test unit consisted of microtiter plates containing an insect diet and 50-80 C. capitata eggs.
(§1) The compounds were formulated using a solution containing 75% v/v water and 25% v/v DMSO. Different concentrations of formulated compounds were sprayed onto the insect diet at 5 μl, using a custom built micro atomizer, at two replications.
After application, microtiter plates were incubated at about 28±1° C. and about 80±5% relative humidity for 5 days. Egg and larval mortality was then visually assessed.

[4] = test system: Nephotettix virescens; test: Rice green leafhopper (Nephotettix virescens) sprayed rice seedling test; conditions: adults on sprayed rice seedlings, after 72 hours, read-out: mortality in comparison with untreated controls
Experimental: Rice seedlings were cleaned and washed 24 hours before spraying. The active compounds were formulated in 1:1 acetone:water (vol:vol), and 0.01% vol/vol surfactant (Kinetic HV) was added. Potted rice seedlings were sprayed with 5-6 ml test solution, air dried, covered with Mylar cages cages and inoculated with 10 adults. Treated rice plants were kept at about 28-29° C. and relative humidity of about 50-60%. Percent mortality was recorded after 72 hours.

[5] = test system: Dichromothrips corbetti; test: Orchid thrips (dichromothrips corbetti) floral-immersion test; conditions: adult thrips on dipped orchid petals, 72 hours after treatment, read-out: mortality in comparison with untreated controls
Experimental: Dichromothrips corbetti adults used for bioassay were obtained from a colony maintained continuously under laboratory conditions. For testing purposes, the test compound is diluted in a 1:1 mixture of acetone:water (vol:vol), plus Kinetic HV ata rate of 0.01% v/v.
Thrips potency of each compound was evaluated by using a floral-immersion technique. All petals of individual, intact orchid flowers were dipped into treatment solution and allowed to dry in Petri dishes. Treated petals were placed into individual re-sealable plastic along with about 20 adult thrips. All test arenas were held under continuous light and a temperature of about 28° C. for duration of the assay. After 3 days, the numbers of live thrips were counted on each petal. The percent mortality was recorded 72 hours after treatment.

[6] = test system: Nezara viridula; test: Green soldier stink bug (Nezara viridula) sprayed soybean pod test; conditions: 120 h, late 3rd instar on sprayed soybean pods, after 5 days, read-out: mortality in comparison with untreated controls
Experimental: The active compound was dissolved at the desired concentration in a mixture of 1:1 (vol:vol) distilled water:acetone. Surfactant (Kinetic HV) was added at a rate of 0.01% (vol/vol). The test solution was prepared at the day of use.Soybean pods were placed in glass Petri dishes lined with moist filter paper and inoculated with ten late 3rd instar N. vindula. Using a hand atomizer, approximately 2 ml solution is sprayed into each Petri dish. Assay arenas were kept at about 25° C. Percent mortality was recorded after 5 days.

[7] = test system: Halyomorpha halys; test: Brown marmorated stink bug (Halyomorpha halys) sprayed peanut/soybean seed test; conditions: 120 h, adult stage, sprayed cups with peanuts and soybean seeds, after 5 days, read-out: mortality in comparison with untreated controls
Experimental: The active compound was dissolved at the desired concentration in a mixture of 1:1 (vol:vol) distilled water:acetone. Surfactant (Kinetic HV) was added at a rate of 0.01% (vol/vol). The test solution was prepared at the day of use.
Row peanuts and soybean seeds were placed into microwavable plastic cups and inoculated with five adult stage H. halys. Using a hand atomizer, approximately 1 ml solution is sprayed into each cup, insects and food present. A water source was provided (cotton wick with water). Each treatment is replicated 4-fold. Assay arenas are kept at about 25° C. Percent mortality was recorded after 5 days.

[8] = test system: Heliothis virescens; test: Tobacco budworm (Heliothis virescens) insect diet/egg microtiter test; conditions: 120 h, egg and larval mortality on sprayed insect diet, 5 days, read-out: mortality in comparison with untreated controls
Experimental: For evaluating control of tobacco budworm (Heliothis virescens) the test unit consisted of 96-well-microtiter plates containing an insect diet and 15-25 H. virescens eggs.
The compounds were formulated using a solution containing 75% v/v water and 25% v/v DMSO. Different concentrations of formulated compounds were sprayed onto the insect diet at 10 μl, using a custom built micro atomizer, at two replications.
After application, microtiter plates were incubated at about 28+1° C. and about 80+5% relative humidity for 5 days. Egg and larval mortality was then visually assessed.

[9] = test system: Spodoptera eridania; test: Southern armyworm (Spodoptera eridania) sprayed lima bean foliage test; conditions: foliar, 96 h, larvae on sprayed lima bean plants, 4 days after treatment, read-out: mortality in comparison with untreated controls
Experimental: The active compounds were formulated in cyclohexanone as a 10,000 ppm solution supplied in tubes. The tubes were inserted into an automated electrostatic sprayer equipped with an atomizing nozzle and they served as stock solutions for which lower dilutions were made in 50% acetone:50% water (v/v). A nonionic surfactant (Kinetic®) was included in the solution at a volume of 0.01% (v/v).
Lima bean plants (variety Sieva) were grown 2 plants to a pot and selected for treatment at the 1st true leaf stage. Test solutions were sprayed onto the foliage by an automated electrostatic plant sprayer equipped with an atomizing spray nozzle. The plants were dried in the sprayer fume hood and then removed from the sprayer. Each pot was placed into perforated plastic bags with a zip closure. About 10 to 11 armyworm larvae were placed into the bag and the bags zipped closed. Test plants were maintained in a growth room at about 25° C. and about 20-40% relative humidity for 4 days, avoiding direct exposure to fluorescent light (24 hour photoperiod) to prevent trapping of heat inside the bags. Mortality and reduced feeding were assessed 4 days after treatment, compared to untreated control plants.

[10] = test system: Anthonomus grandis; test: Boll weevil (Anthonomus grandis) insect diet/egg microtiter test; conditions: 120 h, egg and larval mortality on sprayed insect diet, 5 days, read-out: mortality in comparison with untreated controls
Experimental: For evaluating control of boll weevil (Anthonomus grandis) the test unit consisted of 96-well-microtiter plates containing an insect diet and 5-10 A. grandis eggs.
as §1
After application, microtiter plates were incubated at about 25±1° C. and about 75±5% relative humidity for 5 days. Egg and larval mortality was then visually assessed.

[11] = test system: Plutella xylostella; test: Diamond back moth (Plutella xylostella) cabbage leaf-dip test; conditions: 3rd instar larvae on dipped cabbage leaves, 72 hours after treatment, read-out: mortality in comparison with untreated controls
Experimental: The active compound was dissolved at the desired concentration in a mixture of 1:1 (vol:vol) distilled water:aceteone. Surfactant (Kinetic HV) was added at a rate of 0.01% (vol/vol).The test solution was prepared at the day of use.
Leaves of cabbage were dipped in test solution and air-dried. Treated leaves were placed in petri dishes lined with moist filter paper and inoculated with ten 3rd instar larvae. Mortality was recorded 72 hours after treatment. Feeding damages were also recorded using a scale of 0-100%.

[12] = test system: Myzus persicae; test: Green peach aphid (Myzus persicae) systemic test, artificial diet in microtiter plates; conditions: 72 h, adult aphids on treated artificial diet, 3 days, read-out: mortality in comparison with untreated controls
From the text: For evaluating control of green peach aphid (Myzus persicae) through systemic means the test unit consisted of 96-well-microtiter plates containing liquid artificial diet under an artificial membrane.
The compounds were formulated using a solution containing 75% v/v water and 25% v/v DMSO. Different concentrations of formulated compounds were pipetted into the aphid diet, using a custom built pipetter, at two replications.
After application, 5-8 adult aphids were placed on the artificial membrane inside the microtiter plate wells. The aphids were then allowed to suck on the treated aphid diet and incubated at about 23±1 ° C. and about 50±5% relative humidity for 3 days. Aphid mortality and fecundity was then visually assessed.

CCC(=O)N1CC2(C1)OCc1cc(C3=CCC(c4cc(Cl)c(F)c(Cl)c4)(C(F)(F)F)C3)ccc12 (centres unmarked) [Compound I-1-1, 1-[6-[4-(3,5-dichloro-4-fluoro-phenyl)-4-(trifluoromethyl)cyclopenten-1-yl]spiro[1H-isobenzofuran-3,3′-azetidine]-1′-yl]propan-1-one]
≥ 75%: mortality at 300 ppm [1] | mortality at 2500 ppm [2] | mortality at 2500 ppm [3] | mortality at 300 ppm [4] | mortality at 300 ppm [5] | mortality at 300 ppm [6] | mortality at 100 ppm [7] | mortality at 2500 ppm [8] | mortality at 10 ppm [9] | mortality at 2500 ppm [10] | mortality at 300 ppm [11] | mortality at 2500 ppm [12]

CC(=O)N1CC2(C1)OCc1cc(C3=CSC(c4cc(Cl)c(F)c(Cl)c4)(C(F)(F)F)C3)ccc12 (centres unmarked) [Compound I-2-2, 1-[6-[2-(3,5-dichloro-4-fluoro-phenyl)-2-(trifluoromethyl)-3H-thiophen-4-yl]spiro[1H-isobenzofuran-3,3′-azetidine]-1′-yl]ethanone]
≥ 75%: mortality at 300 ppm [1] | mortality at 2500 ppm [2] | mortality at 300 ppm [4] | mortality at 300 ppm [5] | mortality at 300 ppm [6] | mortality at 100 ppm [7] | mortality at 2500 ppm [8] | mortality at 10 ppm [9] | mortality at 2500 ppm [10] | mortality at 300 ppm [11] | mortality at 2500 ppm [12]
